Assay results: ChEMBL document CHEMBL3351894, “Development and evaluation of ST-1829 based on 5-benzylidene-2-phenylthiazolones as promising agent for anti-leukotriene therapy” (Eur J Med Chem, 2015)
≈ marks a conversion by molar mass, not a printed value. Calls of active or inactive are those of the source. The calls are words filed in the database; no cut-off is given here.

Key:
[1] = Solubility of the compound in DMSO at RT; assay type: physicochemical
[2] = Cytotoxicity against human U937 cells assessed as cell viability after 48 hrs by WST-1 assay; assay type: cell-based; conditions: U-937, 48 h
[3] = Cytotoxicity against human U937 cells at 30 uM after 48 hrs by LDH assay; assay type: cell-based; conditions: u-937, 48 h
[4] = target: T1, Polyunsaturated fatty acid lipoxygenase ALOX12 (Homo sapiens, UniProt P18054); test: Inhibition of 12-LO (unknown origin)
T1 sequence (P18054 whole entry): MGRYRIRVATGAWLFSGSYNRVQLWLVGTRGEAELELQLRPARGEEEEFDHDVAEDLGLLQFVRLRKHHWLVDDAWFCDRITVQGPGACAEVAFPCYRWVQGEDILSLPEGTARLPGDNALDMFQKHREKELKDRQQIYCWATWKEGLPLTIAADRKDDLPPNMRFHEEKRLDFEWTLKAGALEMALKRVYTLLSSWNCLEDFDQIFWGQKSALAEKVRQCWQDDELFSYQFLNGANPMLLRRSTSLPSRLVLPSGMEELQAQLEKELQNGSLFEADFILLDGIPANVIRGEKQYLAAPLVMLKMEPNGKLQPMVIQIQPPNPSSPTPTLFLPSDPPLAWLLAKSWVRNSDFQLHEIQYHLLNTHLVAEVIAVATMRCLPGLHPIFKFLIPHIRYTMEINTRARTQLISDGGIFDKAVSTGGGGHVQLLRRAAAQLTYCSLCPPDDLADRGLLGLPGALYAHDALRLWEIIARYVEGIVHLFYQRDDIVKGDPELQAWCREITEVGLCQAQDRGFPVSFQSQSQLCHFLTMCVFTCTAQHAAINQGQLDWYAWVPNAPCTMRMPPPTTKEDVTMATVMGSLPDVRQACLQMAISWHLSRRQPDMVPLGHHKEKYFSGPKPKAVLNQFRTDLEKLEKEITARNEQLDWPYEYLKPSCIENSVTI

[5] = target: T2, Polyunsaturated fatty acid 5-lipoxygenase (Homo sapiens, UniProt P09917); test: Inhibition of 5-LO in human PMNL S100 extract using arachidonic acid as substrate incubated for 15 mins prior to substrate addition measured after 10 mins by HPLC analysis
T2 sequence (P09917 whole entry): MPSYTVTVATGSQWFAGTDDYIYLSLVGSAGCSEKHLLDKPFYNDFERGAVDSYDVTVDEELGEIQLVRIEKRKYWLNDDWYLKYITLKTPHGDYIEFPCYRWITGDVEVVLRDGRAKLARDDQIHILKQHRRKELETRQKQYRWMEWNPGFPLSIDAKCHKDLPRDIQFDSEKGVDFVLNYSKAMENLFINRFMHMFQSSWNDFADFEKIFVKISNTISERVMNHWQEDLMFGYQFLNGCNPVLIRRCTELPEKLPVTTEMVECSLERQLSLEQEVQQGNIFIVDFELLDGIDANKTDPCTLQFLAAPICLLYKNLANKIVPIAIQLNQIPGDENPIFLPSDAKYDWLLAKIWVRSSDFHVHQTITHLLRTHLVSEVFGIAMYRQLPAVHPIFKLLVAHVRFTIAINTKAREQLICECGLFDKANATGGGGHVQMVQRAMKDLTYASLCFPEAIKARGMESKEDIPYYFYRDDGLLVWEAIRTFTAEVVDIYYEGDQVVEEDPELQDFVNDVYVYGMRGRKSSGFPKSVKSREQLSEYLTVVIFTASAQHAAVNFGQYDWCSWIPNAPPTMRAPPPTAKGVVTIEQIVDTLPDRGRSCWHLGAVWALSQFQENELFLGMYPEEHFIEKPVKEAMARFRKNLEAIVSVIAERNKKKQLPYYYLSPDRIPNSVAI

[6] = Solubility of the compound in PBS at pH 7.4 at RT; assay type: physicochemical
[7] = target: T2, Polyunsaturated fatty acid 5-lipoxygenase; test: Inhibition of 5-LO in human PMNL using arachidonic acid as substrate assessed as product formation incubated for 15 mins prior to substrate addition measured after 10 mins by HPLC analysis
[8] = target: T3, Polyunsaturated fatty acid 5-lipoxygenase (Homo sapiens) (UniProt P09917); test: Inhibition of 5-LO in human PMNL using arachidonic acid as substrate assessed as product formation at 1 to 10 uM incubated for 15 mins prior to substrate addition measured after 10 mins by HPLC analysis in presence of 10% fetal calf serum
T3 sequence (whole entry): T2 sequence (P09917 whole entry)

[9] = target: T4, Polyunsaturated fatty acid lipoxygenase ALOX15 (Homo sapiens, UniProt P16050); test: Inhibition of 15-LO1 (unknown origin)
T4 sequence (P16050 whole entry): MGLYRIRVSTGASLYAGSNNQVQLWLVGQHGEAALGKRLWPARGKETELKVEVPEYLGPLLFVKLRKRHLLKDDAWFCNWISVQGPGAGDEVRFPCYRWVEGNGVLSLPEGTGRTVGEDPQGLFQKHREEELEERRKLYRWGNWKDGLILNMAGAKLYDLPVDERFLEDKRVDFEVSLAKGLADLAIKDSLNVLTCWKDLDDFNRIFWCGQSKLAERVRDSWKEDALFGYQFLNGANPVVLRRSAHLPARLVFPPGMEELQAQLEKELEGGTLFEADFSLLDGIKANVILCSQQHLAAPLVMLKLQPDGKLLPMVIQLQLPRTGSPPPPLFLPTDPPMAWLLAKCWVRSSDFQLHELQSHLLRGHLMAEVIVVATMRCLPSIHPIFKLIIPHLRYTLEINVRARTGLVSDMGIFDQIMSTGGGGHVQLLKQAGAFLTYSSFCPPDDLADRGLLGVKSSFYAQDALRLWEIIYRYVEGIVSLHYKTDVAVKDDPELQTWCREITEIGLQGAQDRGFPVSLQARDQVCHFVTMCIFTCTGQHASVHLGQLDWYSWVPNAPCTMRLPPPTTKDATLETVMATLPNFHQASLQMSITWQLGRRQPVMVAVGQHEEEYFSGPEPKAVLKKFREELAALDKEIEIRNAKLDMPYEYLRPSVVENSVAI

For `COc1ccc(Cc2sc(-c3ccc(Cl)cc3)nc2O)cc1`, which solubility [1] is on record?
The solubility was 100 mM (≈ 33.2 mg/mL).

And the IC50 [2]?
The IC50 was over 30000 nM.

What about the Activity [3] of the same compound?
Its Activity is 4.09%.

And the IC50 [4]?
Its IC50 is over 10000 nM.

And the IC50 [5]?
The IC50 was 30 nM.

What about the solubility [6] of the same compound?
The solubility was 0.08 mM (≈ 0.0265 mg/mL).

What about the IC50 [7] of the same compound?
Its IC50 is 140 nM.

What about the inhibition [8] of the same compound?
The inhibition was “inactive”.

And the IC50 [9]?
Its IC50 is over 10000 nM.
